# Source: ChEMBL document CHEMBL4118177, “Valproic acid induces three novel cytotoxic secondary metabolites in Diaporthe sp., an endophytic fungus from Datura inoxia Mill” (Bioorg Med Chem Lett, 2018)
# Calls of active or inactive are those of the source. The rule behind the calls is not given here.
# Legend:
# [1] = test system: MIA PaCa-2; test: Cytotoxicity against human MIAPaCa2 cells assessed as reduction in cell viability after 48 hrs by MTT assay; assay type: functional, cell-based; settings: MIA PaCa-2, 48 h
# [2] = test system: MCF7; test: Cytotoxicity against human MCF7 cells assessed as reduction in cell viability after 48 hrs by MTT assay; assay type: functional, cell-based; settings: MCF7, 48 h
# [3] = test system: PC-3; test: Cytotoxicity against human PC3 cells assessed as reduction in cell viability after 48 hrs by MTT assay; assay type: functional, cell-based; settings: PC-3, 48 h
# [4] = test system: Staphylococcus aureus; test: Antibacterial activity against Staphylococcus aureus ATCC 25923 at 62.5 uM after 24 hrs; assay type: functional, organism-based
# [5] = test system: Pseudomonas aeruginosa; test: Antibacterial activity against Pseudomonas aeruginosa ATCC 27853 at 62.5 uM after 24 hrs; assay type: functional, organism-based
# [6] = test system: Escherichia coli; test: Antibacterial activity against Escherichia coli ATCC 25922 at 62.5 uM after 24 hrs; assay type: functional, organism-based
# [7] = Antioxidant activity assessed as DPPH free radical scavenging activity at 100 uM after 30 mins in dark by spectrophotometric method relative to control; assay type: functional
# [8] = Antioxidant activity assessed as DPPH free radical scavenging activity at 50 uM after 30 mins in dark by spectrophotometric method relative to control; assay type: functional
# [9] = Antioxidant activity assessed as DPPH free radical scavenging activity at 25 uM after 30 mins in dark by spectrophotometric method relative to control; assay type: functional
# [10] = Antioxidant activity assessed as DPPH free radical scavenging activity at 12.5 uM after 30 mins in dark by spectrophotometric method relative to control; assay type: functional
# [11] = Antioxidant activity assessed as DPPH free radical scavenging activity at 6.25 uM after 30 mins in dark by spectrophotometric method relative to control; assay type: functional
# [12] = Antioxidant activity assessed as DPPH free radical scavenging activity after 30 mins in dark by spectrophotometric method; assay type: functional
# [13] = test system: T47D; test: Cytotoxicity against human T47D cells; assay type: functional, cell-based
EC50 [12],Structure (SMILES),IC50 [1],IC50 [2],IC50 [3],Activity [4],Activity [5],Activity [6],Activity [7],Activity [8],Activity [9],Activity [10],Activity [11],IC50 [13]
10.3 µM,CCC/C=C/[C@@H]1OC(=O)c2cc(O)cc(O)c2[C@@H]1O,> 50 µM,> 50 µM,> 50 µM,inactive,inactive,inactive,61%,59%,58%,55%,34.3%,–
27.5 µM,CCC[C@H]1OC(=O)/C=C\C=C\[C@H](O)[C@@H](O)[C@@H]1[C@H](C)COC(=O)c1ccc(O)cc1,20 µM,30 µM,14 µM,inactive,inactive,inactive,63%,59%,48.3%,26.8%,22.1%,–

# Further lines, the compound ahead of its results:
Structure (SMILES),EC50 [12],IC50 [1],IC50 [2],IC50 [3],Activity [4],Activity [5],Activity [6],Activity [7],Activity [8],Activity [9],Activity [10],Activity [11],IC50 [13]
CCC[C@@H]1C[C@H](O)[C@@H](OC)/C=C/C=C\C(=O)O1,> 100 µM,34 µM,> 50 µM,22 µM,inactive,inactive,inactive,10%,8.13%,7.12%,4.04%,2.37%,–
O=C1O[C@H]([C@@H](O)CO)C(O)=C1O [ASCORBIC ACID],6.2 µM,–,–,–,–,–,–,87.8%,85.8%,76.5%,60.9%,52.7%,–
CCC[C@@H]1C[C@H](O)[C@@H](O)/C=C/C=C\C(=O)O1,> 100 µM,32 µM,29 µM,18 µM,inactive,inactive,inactive,39.1%,38.5%,37.4%,36.6%,35%,7 µM
CC(=O)O[C@H]1C(=O)[C@@]2(C)[C@H]([C@H](OC(=O)c3ccccc3)[C@]3(O)C[C@H](OC(=O)[C@H](O)[C@@H](NC(=O)c4ccccc4)c4ccccc4)C(C)=C1C3(C)C)[C@]1(OC(C)=O)CO[C@@H]1C[C@@H]2O [PACLITAXEL],–,0.006 µM,–,0.007 µM,–,–,–,–,–,–,–,–,–
O=C(O)c1cn(C2CC2)c2cc(N3CCNCC3)c(F)cc2c1=O,–,–,–,–,Active,Active,Active,–,–,–,–,–,–
